These are literature values, as cited in patent US20080057125A1, “STABLE TABLET DOSAGE FORMS OF PROTON PUMP INHIBITORS” (priority 2005, published 2008).

The conditions of series [1]: from commercially marketed dosage forms.
For series [2] the following is noted: 25° C.

Molecules are shown by their SMILES. Read-outs that look alike come from different tables or passages of the source.

Turning to `Cc1c(OCC(F)(F)F)ccnc1C[S+]([O-])c1nc2ccccc2[nH]1` (stereo not shown) [Lansoprazole, 2-[[[3-methyl-4-(2,2,2-trifluoroethoxy)-2-pyridyl]methyl]sulfinyl]benzimidazole], in series [1], the percent bioavailability is given as 80-85%. Moreover, the “degradation half-life in aqueous solution” value is “approximately 0.5 hour” in series [2] (pH 5.0) and “approximately 18 hours” in series [2] (pH 7.0).
As for `COc1ccc2[nH]c([S+]([O-])Cc3ncc(C)c(OC)c3C)nc2c1` (stereo not shown) [omeprazole, 2-[2-(3,5-dimethyl-4-methoxy)-pyridylmethylsulfinyl]-(5-methoxy)-benzimidazole], in series [1], the percent bioavailability is listed as 30-40%.
